Measurements: patent US5464818A (priority 1993, dated 1995)
Like-named read-outs stand apart in the source and are kept apart here. *1 amine or outer side, *2 acyl side, *3 side chain or, on linkers, in order; H or OH if unused. Where a SMILES comes first, the peptide text is derived from it. [ ]: non-standard residue; d: D form. The star is where a group is joined. Sta = CC(C)C[C@H](N)[C@@H](O)CC(=O)O; AMC = Cc1cc(=O)oc2cc(N*)ccc12; Suc = O=C(CCC(=O)[*:2])[*:1]; Isovaleryl = CC(C)CC(=O)*

Legend:
[1] = test system: Clostridium perfringens FERM BP-4584 (7544S) cell growth-stimulating protein having proteinase activity (MW about 420,000); type: biochemical
[2] = test system: Clostridium perfringens FERM BP-4584 (7544S) cell growth-stimulating protein having proteinase activity (MW about 420,000); type: biochemical; remark: listed apart in the source
[3] = inhibitor conc. 0.01 mM, substrate Suc-Ala-Ala-Pro-Phe-MCA
[4] = inhibitor conc. 1.0 mM, substrate Suc-Ala-Ala-Pro-Phe-MCA

Compound: CC(C)C[C@H](NC(=O)N[C@H](C(=O)N[C@@H](CCC(N)=O)C(=O)N[C@@H](C)C=O)[C@@H]1CCNC(=N)N1)C(=O)O [Elastatinal]
- Residual activity [1, 3]: 98%

Compound: O=C(O)CN(CCN(CC(=O)O)CC(=O)O)CC(=O)O [Ethylenediamine tetraacetic acid]
- Residual activity [1, 4]: 34%

Compound: O=C(O)CI [Iodoacetic acid]
- Residual activity ([1]; inhibitor conc. 0.1 mM, substrate Suc-Ala-Ala-Pro-Phe-MCA): 100%

Compound: CC(C)CC(=O)N[C@H](C(=O)N[C@H](C(=O)N[C@@H](CC(C)C)[C@@H](O)CC(=O)N[C@@H](C)C(=O)N[C@@H](CC(C)C)[C@@H](O)CC(=O)O)C(C)C)C(C)C [Pepstatin A] (Isovaleryl-VV[Sta]A[Sta]-OH)
- Residual activity [1, 3]: 103%

Compound: Cc1cc(=O)oc2cc(NC(=O)[C@H](Cc3ccccc3)NC(=O)[C@@H]3CCCN3C(=O)[C@H](C)NC(=O)[C@H](C)NC(=O)CCC(=O)O)ccc12 [Suc--Ala--Ala--Pro--Phe--MCA, succinyl-alanyl-alanyl-prolyl-phenylalanine-4-methyl-coumaryl-7-amide] (Suc-AAPF-{AMC})
- Km [2]: 4.2 mM
- Vmax ([2]; substrate Suc-Ala-Ala-Pro-Phe-MCA, optimum pH 6.2-7.0): 230 μ mol/min/mg

Compound: c1cnc2c(c1)ccc1cccnc12 [o-Phenanthroline]
- Residual activity [1, 4]: 85%

Compound: Chymostatin
- Residual activity [1, 3]: 62%

Compound: Toluene sulfonylfluoride
- Residual activity [1]: 1%
